According to PMC11079064, “Discovery of a brain penetrant small molecule antagonist targeting LPA1 receptors to reduce neuroinflammation and promote remyelination in multiple sclerosis” (Scientific Reports, 2024):
Entries after “also recorded” stand apart in the source; their conditions may differ.

What was measured:
rat OPCs = assay: OPC-macrophage Transwell co-culture; assay type: cell-based; conditions: in presence of macrophages, 300 nM
Method: Following PDGF withdrawal, we observed a 41% decrease in the number of MBP^+ oligodendrocytes when co-cultured with macrophages.
OPCs were isolated as previously described. Cells were plated on the membrane layer of poly-L-lysine (Millipore Sigma, St. Louis, MO) coated Transwell culture plates (VWR, Radnor, PA) at a seeding density of 1 × 10^6 cells per well. Transwell culture plates have microporous membrane which allows for factors to flow between the top and bottom chamber. This permits us to minimize direct contact between the macrophage and OPCs while allowing for a constant, renewable source unlike conditioned media which can be depleted. […]
Isolation of macrophages. […] Differentiated oligodendrocytes were detected with a rat monoclonal antibody to MBP (Millipore Sigma, St. Louis, MO) and OPCs were detected with a rabbit monoclonal antibody to PDGFRα (Santa Cruz Biotechnology, Dallas, TX). Macrophages were detected with CD68 (Santa Cruz Biotechnology, Dallas, TX). […] Images were acquired using a 20× objective, each well was read in a 5 × 5 matrix. Data were analyzed using GraphPad Prism (La Jolla, CA) and statistical significance was determined by ANOVA.

microglia = assay: LPA-induced microglial activation in hippocampal slices; assay type: cell-based, mouse; conditions: 3 µM, 10 µM LPA
Method: Microglial activation was then triggered by the addition of 10 µM LPA, slices incubated for 3 additional hours, then fixed. Slices were immunostained against IBA1 and microglial perimeters were measured as a mean of differentiating between ramified/resting versus rounded/activated microglia.
Brains were harvested from mice (postnatal day 20, Charles River). […] 400 µm thick coronal slices were cut on a McIlwain tissue chopper and returned to dissection media and separated manually. […] Slices were incubated for 2 h at 37 °C (4 slices per condition). Microglial activation was initiated by adding LPA (18:1, Avanti Polar Lipids) to a final concentration of 10 µM and incubated for 3 h. Slices were then fixed in formalin and for 2 h.
For immunohistochemistry, slices were washed for 3 × 15 min in 0.5% Triton-X100 and DPBS. Slices were then stained using IBA-1 antibody (Thermo Scientific) in 10% normal goat serum with 0.5% Triton-X100 in DPBS overnight on a rocker. Slices were then washed in 0.5% Triton-X100 in DPBS 3 × 15 min. Goat anti-mouse Alexa 564 (1:500, Invitrogen, Carlsbad, CA) and […] (Invitrogen, Carlsbad, CA) were diluted in DPBS with 0.5% Triton-X100 and incubated for 2h. Slices were washed 3 × 15 min in DPBS with 0.5% Triton-X100, mounted with Fluoromount and imaged on a Nikon A1R confocal microscope.

[1] = system: human cortical slice cultures; assay: Human cortical slice culture, Mbp transcript by qPCR; assay type: cell-based; conditions: 9 days treatment; read-out: EC50 of Mbp increase by qPCR
Method: Cortical slices from regions containing both white and gray matter were generated from fresh human adult donor tissue and cultured for 10 days.
Human donor brain was received 14 h after death on wet ice. Upon receipt, the brain was immediately placed into-ice cold DPBS without calcium or magnesium. Cortical regions containing gray-white border were isolated then sliced on a McIlwain tissue chopper set at 400 µm thickness. […] Slices were then processed for qPCR or immunohistochemistry.
Evaluation of Mbp transcript in human brain slice culture: After compound treatment, slices were immediately transferred to lysis buffer and RNA extracted using the RNEasy Mini kit (Qiagen). Reverse transcription was performed using QScript (QuantaBio) followed by qPCR with Perfecta PCR SuperMix (QuantaBio) on a StepOne Plus Thermocycler (ABI). Primers used were as follows: 18S rRNA F: […] R: […]; Mbp: […] R: […]. Cycling parameters: 95 °C 30 s, then repeat 45×: 95 °C for 5 s, 60 °C for 15 s, followed by melt curve analysis. Data was calculated using 2^−ΔΔCt , normalizing to 18S RNA and vehicle.

SMILES: COc1ccc(NC(=O)N(c2ccccc2C(C)C)C2CCC(C(=O)O)CC2)c(OC(F)F)n1 (stereo not drawn) [PIPE-791]
- increase in differentiation versus vehicle treated cultures (rat OPCs): 2.1 fold
- effect on LPA-induced decrease in microglial perimeter length (microglia): inhibited; also recorded: prevented
- EC50 [1]: 4.2 nM
